Laboratory results taken from patent US20220356174A1, “PYRIDIN-2-ONE COMPOUNDS USEFUL AS SMARCA2 ANTAGONISTS” (Epizyme, Inc., priority 2018, published 2022).
Like-named read-outs stand apart in the source and are kept apart here.

What was measured:
FL-SMARCA4 = FL-SMARCA4 (Homo sapiens, UniProt P51532); assay: SMARCA4 ATPase activity assay (ADP-Glo, chicken mononucleosome substrate)
Method: Substrates. Chicken erythrocyte mononucleosomes were prepared from fresh chicken blood collected into anticoagulant and filtered through cheesecloth. The filtered chicken blood was diluted in buffer A (10 mM Tris-HCl, pH 7.4, 10 mM NaCl, 3 mM MgCl2) and centrifuged at 500 g for 15 minutes to collect the erythrocytes. Erythrocyte nuclei were harvested by resuspending the pellets in buffer A containing 0.3% NP-40 detergent. The mixture was stirred with a magnetic bar for 10 mins and centrifuged at 4000 g for 10 minutes. Resuspension, stirring and centrifugation was repeated twice more before the final nuclei pellet was resuspended in buffer A+0.3% NP-40 and stored at −80° C. until purification. For nucleosome purification, nuclei aliquots were rapidly thawed and washed five times with buffer B (10 mM Tris-HCl, pH 7.4, 1 mM CaCl2), 1 mM PMSF) and collected by centrifugation at 2800 g for 10 minutes. Pellets were resuspended in buffer B and treated with 100 U/mL micrococcal nuclease for 40 minutes at 37° C. The reaction was terminated by the addition of 2 mM EDTA and was centrifuged at 2800 g for 10 minutes. The nuclei were then lysed by resuspending the pellet in 1 mM EDTA and 1 mM PMSF and passing the mixture through a 22G needle 4 to 5 times. The solution was then centrifuged at 15,000 g for 20 minutes and the supernatant was collected. The remaining pellet was lysed through the syringe twice more and the supernatants were pooled after centrifugation. The pooled supernatants were further purified by size exclusion chromatography (GE Sephacryl S300 HR 50/100) in buffer C (10 mM HEPES, pH 7.5, 10 mM KCl, 1 mM EDTA, 1 mM PMSF, 10% glycerol). Fractions were analyzed by agarose gel electrophoresis and SDS-PAGE and fractions containing mononucleosomes were pooled and stored at −80° C.
The SMARCA2 or SMARCA4 ATPase assays were identical. The SMARCA2 or SMARCA4 ATPase assays were performed in a buffer consisting of 20 mM Bicine (pH 7.5), 10 mM KCl, 1 mM MgCl2, 1 mM TCEP, 0.005% BSG, and 0.002% Tween 20, prepared on the day of use. Compounds in 100% DMSO were 3-fold serially diluted to produce a 10 point curve for IC50 determination and 0.2 uL were transferred into polypropylene 384-well V-bottom plates (Greiner) using an Echo liquid handler (Labcyte). DMSO (0.2 uL) was added to Columns 11, 12, 23, 24, rows A-H for the maximum signal control and 0.2 uL doxorubicin, a known DNA intercalator, was added to columns 11, 12, 23, 24, rows I-P for the minimum signal control. The SMARCA2 or SMARCA4 enzyme (10 uL) was added to the compounds and allowed to incubate with the compounds for 30 min at room temperature. The SMARCA2 or SMARCA4 ATPase assay was initiated by the addition of 10 uL chicken mononucleosome and ATP mixture (final volume=20 uL). The final concentrations of the assay components were as follows: SMARCA2 or SMARCA4 was 5 nM, ATP was 250 uM, chicken mononucleosome was 10 nM, doxorubicin in the minimum signal control wells was 50 uM, and the DMSO concentration was 1%. 5 uL of the reaction mixture was transferred from the 384-well polypropylene plate to a white opaque polystyrene 384-well plate. At 60 minutes, the assays were terminated by the addition of 5 uL ADP-Glo™ Reagent (Promega). After 40 minutes, the luciferase reaction was initiated by the addition of 10 uL of Kinase Detection Reagent (Promega) and incubated for 1 hour. The ADP product generated from the SMARCA2 or SMARCA4 ATPase reaction was determined via luminescence intensity.

[1] = molecular target: T1, FL-SMARCA2 (full-length human SMARCA2 isoform 1) (Homo sapiens, UniProt P51531); assay: SMARCA2 ATPase activity assay (ADP-Glo, chicken mononucleosome substrate); assay type: biochemical; conditions: ATP 250 uM
T1 construct: FLAG tag (YKDDDDK) (C); made in house; host or cells: Sf21 insect cells (baculovirus, pFastBacI)
T1 sequence (P51531 with tags, fused parts or gaps): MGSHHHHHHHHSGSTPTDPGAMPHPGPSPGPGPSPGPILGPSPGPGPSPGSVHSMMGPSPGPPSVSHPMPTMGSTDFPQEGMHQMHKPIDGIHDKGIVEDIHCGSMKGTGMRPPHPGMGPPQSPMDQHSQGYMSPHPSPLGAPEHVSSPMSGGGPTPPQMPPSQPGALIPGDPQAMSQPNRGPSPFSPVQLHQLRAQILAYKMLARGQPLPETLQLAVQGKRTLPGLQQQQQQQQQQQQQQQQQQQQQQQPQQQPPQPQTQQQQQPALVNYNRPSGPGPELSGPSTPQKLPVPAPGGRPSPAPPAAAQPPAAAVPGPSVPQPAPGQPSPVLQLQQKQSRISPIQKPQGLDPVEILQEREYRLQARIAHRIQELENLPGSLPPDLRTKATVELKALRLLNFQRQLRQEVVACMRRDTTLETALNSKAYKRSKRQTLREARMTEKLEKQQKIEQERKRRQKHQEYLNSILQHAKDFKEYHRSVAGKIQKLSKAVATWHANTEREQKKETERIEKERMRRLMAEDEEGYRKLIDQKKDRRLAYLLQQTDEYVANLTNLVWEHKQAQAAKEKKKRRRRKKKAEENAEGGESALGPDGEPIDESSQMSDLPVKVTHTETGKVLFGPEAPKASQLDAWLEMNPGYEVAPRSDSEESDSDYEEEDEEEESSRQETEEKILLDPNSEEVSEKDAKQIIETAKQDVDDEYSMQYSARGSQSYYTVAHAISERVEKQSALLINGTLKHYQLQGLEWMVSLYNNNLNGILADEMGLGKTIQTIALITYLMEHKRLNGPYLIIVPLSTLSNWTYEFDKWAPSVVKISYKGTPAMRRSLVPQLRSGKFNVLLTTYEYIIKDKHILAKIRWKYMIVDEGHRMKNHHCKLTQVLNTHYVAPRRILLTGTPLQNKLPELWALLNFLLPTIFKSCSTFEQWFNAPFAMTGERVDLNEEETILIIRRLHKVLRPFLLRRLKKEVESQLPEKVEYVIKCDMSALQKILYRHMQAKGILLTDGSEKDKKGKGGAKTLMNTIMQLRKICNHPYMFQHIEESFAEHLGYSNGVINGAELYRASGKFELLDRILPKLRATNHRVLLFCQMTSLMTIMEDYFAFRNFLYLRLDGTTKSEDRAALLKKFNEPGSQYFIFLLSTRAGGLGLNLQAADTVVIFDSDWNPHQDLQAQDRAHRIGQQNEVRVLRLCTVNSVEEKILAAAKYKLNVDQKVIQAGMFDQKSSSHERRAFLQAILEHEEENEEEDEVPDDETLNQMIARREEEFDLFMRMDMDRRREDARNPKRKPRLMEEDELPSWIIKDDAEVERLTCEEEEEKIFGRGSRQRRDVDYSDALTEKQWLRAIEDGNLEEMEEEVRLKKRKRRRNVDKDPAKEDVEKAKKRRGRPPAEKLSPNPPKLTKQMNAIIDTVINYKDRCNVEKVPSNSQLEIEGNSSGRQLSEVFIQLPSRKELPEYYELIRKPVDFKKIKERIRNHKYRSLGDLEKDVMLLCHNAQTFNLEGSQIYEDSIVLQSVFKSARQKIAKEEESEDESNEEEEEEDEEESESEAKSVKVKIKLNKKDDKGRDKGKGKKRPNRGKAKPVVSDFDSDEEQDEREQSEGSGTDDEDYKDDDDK

[2] = FL-SMARCA4 IC50, Table 3.2, ATPase assay, enzyme 5 nM, ATP 250 uM, chicken mononucleosome 10 nM, 30 min preincubation
[3] = Table 3.1, ATPase assay, enzyme 5 nM, chicken mononucleosome 10 nM, 30 min preincubation
[4] = FL-SMARCA4 IC50, Table 3a.2, SMARCA4 5 nM, ATP 250 uM, mononucleosome 10 nM
[5] = Table 3a.1, SMARCA2 5 nM, mononucleosome 10 nM
[6] = FL-SMARCA4 IC>50, Table 3c.2, ATPase assay, enzyme 5 nM, ATP 250 uM, chicken mononucleosome 10 nM, 30 min preincubation
[7] = Table 3c.1, ATPase assay, enzyme 5 nM, chicken mononucleosome 10 nM, 30 min preincubation

Chain of FL-SMARCA4 (P51532 whole entry, canonical isoform): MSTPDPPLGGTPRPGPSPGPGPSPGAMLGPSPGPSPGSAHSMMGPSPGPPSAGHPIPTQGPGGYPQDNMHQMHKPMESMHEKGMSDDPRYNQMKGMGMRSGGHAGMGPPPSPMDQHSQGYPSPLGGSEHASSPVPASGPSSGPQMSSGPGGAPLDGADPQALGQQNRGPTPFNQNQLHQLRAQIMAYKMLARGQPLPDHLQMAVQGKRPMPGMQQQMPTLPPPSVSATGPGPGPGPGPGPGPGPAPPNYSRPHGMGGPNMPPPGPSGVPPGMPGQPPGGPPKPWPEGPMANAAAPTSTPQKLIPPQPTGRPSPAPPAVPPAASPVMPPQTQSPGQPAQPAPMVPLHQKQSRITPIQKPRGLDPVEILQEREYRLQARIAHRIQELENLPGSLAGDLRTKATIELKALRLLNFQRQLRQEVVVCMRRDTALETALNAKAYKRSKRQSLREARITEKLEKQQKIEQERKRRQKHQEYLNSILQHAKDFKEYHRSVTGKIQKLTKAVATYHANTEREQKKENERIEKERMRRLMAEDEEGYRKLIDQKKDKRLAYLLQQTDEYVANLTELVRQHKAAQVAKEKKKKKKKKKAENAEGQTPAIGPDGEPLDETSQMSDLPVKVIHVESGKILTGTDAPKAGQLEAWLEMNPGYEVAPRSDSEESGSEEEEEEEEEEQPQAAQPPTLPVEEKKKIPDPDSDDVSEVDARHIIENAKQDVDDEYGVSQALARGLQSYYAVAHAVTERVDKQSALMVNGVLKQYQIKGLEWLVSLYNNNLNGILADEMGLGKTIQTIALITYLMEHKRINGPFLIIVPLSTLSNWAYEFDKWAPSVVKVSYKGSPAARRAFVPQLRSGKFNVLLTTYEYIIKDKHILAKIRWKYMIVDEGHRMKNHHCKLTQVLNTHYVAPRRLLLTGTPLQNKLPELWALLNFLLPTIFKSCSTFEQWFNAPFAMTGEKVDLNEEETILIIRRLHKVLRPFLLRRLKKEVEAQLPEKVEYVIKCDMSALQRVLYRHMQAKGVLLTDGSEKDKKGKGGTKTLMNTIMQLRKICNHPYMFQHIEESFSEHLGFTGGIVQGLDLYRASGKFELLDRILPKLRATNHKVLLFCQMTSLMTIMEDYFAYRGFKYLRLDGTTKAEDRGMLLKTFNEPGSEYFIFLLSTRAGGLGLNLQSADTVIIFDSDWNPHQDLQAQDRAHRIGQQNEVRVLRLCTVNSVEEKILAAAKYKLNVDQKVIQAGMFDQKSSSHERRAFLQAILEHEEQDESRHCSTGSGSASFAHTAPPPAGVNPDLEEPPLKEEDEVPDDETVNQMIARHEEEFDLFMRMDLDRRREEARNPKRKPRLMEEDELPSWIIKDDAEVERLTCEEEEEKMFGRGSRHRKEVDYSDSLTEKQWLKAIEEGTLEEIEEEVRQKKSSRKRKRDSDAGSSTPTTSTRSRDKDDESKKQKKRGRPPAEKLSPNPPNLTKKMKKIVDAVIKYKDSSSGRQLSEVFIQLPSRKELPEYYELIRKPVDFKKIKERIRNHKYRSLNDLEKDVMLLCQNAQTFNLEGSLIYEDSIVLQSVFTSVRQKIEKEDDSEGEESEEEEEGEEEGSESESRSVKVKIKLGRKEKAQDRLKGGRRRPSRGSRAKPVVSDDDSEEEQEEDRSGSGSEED

| SMILES | IC50 (FL-SMARCA4; [2]) | IC50 [1, 3] | further results |
| --- | --- | --- | --- |
| O=C(Nc1cc(F)c(=O)n(CC(F)F)c1)c1cc(Cl)c(C#Cc2cccnc2)s1 [Compound 53d] | – | – | IC50 (FL-SMARCA4; FL-SMARCA4 IC50): > 50 µM; IC50 ([1]; Table 3d.1, ATPase assay, enzyme 5 nM, chicken mononucleosome 10 nM, 30 min preincubation, read-out: FL-SMARCA2 IC>50): > 50 µM |
| O=C(Nc1ccc(=O)n(Cc2ccccc2)c1)c1ccc(Br)s1 [Compound 54] | > 50 µM | > 50 µM | – |
| CN1CCN(C(=O)Nc2cc(F)c(=O)n(CCF)c2)CC1=O [Compound 54a] | – | – | IC50 (FL-SMARCA4; [4]): > 50 µM; IC50 [1, 5]: > 50 µM |
| CCn1cc(NC(=O)c2c[nH]c(C)c2)ccc1=O [Compound 55] | > 50 µM | > 50 µM | – |
| O=C(Nc1cc(F)c(=O)n(CCF)c1)c1ncccn1 [Compound 55a] | – | – | IC50 (FL-SMARCA4; [4]): > 50 µM; IC50 [1, 5]: > 50 µM |
| CCn1cc(NC(=O)c2ncc(Cl)s2)ccc1=O [Compound 56] | > 50 µM | > 50 µM | – |
| O=C(Nc1cc(F)c(=O)n(CCF)c1)c1ccc(Cl)cn1 [Compound 56a] | – | – | IC50 (FL-SMARCA4; [4]): > 50 µM; IC50 [1, 5]: > 50 µM |
| CCn1cc(NC(=O)c2cc(Cl)c(Cl)n2Cc2ccccc2)ccc1=O [Compound 57] | > 50 µM | > 50 µM | – |
| CCn1cc(NC(=O)c2cccc(C(F)(F)F)n2)ccc1=O [Compound 57a] | – | – | IC50 (FL-SMARCA4; [4]): > 50 µM; IC50 [1, 5]: > 50 µM |
| Cn1c(C(=O)Nc2ccc(=O)n(CCF)c2)cc(Cl)c1Cl [Compound 58] | 13.6 µM | 1.3 µM | – |
| CCn1cc(NC(=O)c2ccc(C(F)(F)F)cn2)ccc1=O [Compound 58a] | – | – | IC50 (FL-SMARCA4; [4]): > 50 µM; IC50 [1, 5]: > 50 µM |
| CCCn1c(C(=O)Nc2ccc(=O)n(CC)c2)cc(Cl)c1Cl [Compound 59] | > 50 µM | > 50 µM | – |
| CCn1cc(NC(=O)c2cc(C(F)(F)F)ccn2)ccc1=O [Compound 59a] | – | – | IC50 (FL-SMARCA4; [4]): > 50 µM; IC50 [1, 5]: > 50 µM |
| CCn1cc(NC(=O)c2cc(Cl)c(Cl)n2CCF)ccc1=O [Compound 60] | 34.7 µM | 16.7 µM | – |
| O=C(Nc1cc(F)c(=O)n(CCF)c1)N1CCC(Cl)=C(Cl)C1 [Compound 60a] | – | – | IC50 (FL-SMARCA4; [4]): 46.7 µM; IC50 [1, 5]: 14.3 µM |
| CCn1cc(NC(=O)c2cc(Cl)c(Cl)n2C(C)C)ccc1=O [Compound 61] | > 50 µM | > 50 µM | – |
| CCN(CC)c1nc2sc(C(=O)Nc3cc(F)c(=O)n(CCF)c3)cc2s1 [Compound 61a] | – | – | IC50 (FL-SMARCA4; [4]): > 50 µM; IC50 [1, 5]: > 50 µM |
| CCn1cc(NC(=O)c2cc(Cl)c(Cl)n2C2CC2)ccc1=O [Compound 62] | > 50 µM | > 50 µM | – |
| COc1ccc2nc(C(=O)Nc3cc(F)c(=O)n(CCF)c3)sc2c1 [Compound 62a] | – | – | IC50 (FL-SMARCA4; [4]): 48.2 µM; IC50 [1, 5]: 44 µM |
| CCn1cc(NC(=O)c2nc(Cl)cs2)ccc1=O [Compound 63] | > 50 µM | > 50 µM | – |

| SMILES | IC50 (FL-SMARCA4; [2]) | IC50 [1, 3] | further results |
| --- | --- | --- | --- |
| CCn1cc(NC(=O)c2nc(Cl)c(Cl)s2)ccc1=O [Compound 64] | > 50 µM | > 50 µM | – |
| O=C(Nc1cc(F)c(=O)n(CCF)c1)c1cc2n(n1)CCNC2=O [Compound 64a] | – | – | IC50 (FL-SMARCA4; [4]): > 50 µM; IC50 [1, 5]: > 50 µM |
| CCn1cc(NC(=O)c2cc(C)c(Cl)s2)ccc1=O [Compound 65] | > 50 µM | 28.4 µM | – |
| COc1ccc2cc(C(=O)Nc3cc(F)c(=O)n(CCF)c3)[nH]c2c1 [Compound 65a] | – | – | IC50 (FL-SMARCA4; [4]): 27 µM; IC50 [1, 5]: 4.91 µM |
| CCn1cc(NC(=O)c2cc(Cl)c(Cl)n2-c2ccccc2)ccc1=O [Compound 66] | > 50 µM | > 50 µM | – |
| O=C(Nc1cc(F)c(=O)n(CCF)c1)c1cc2cncnc2[nH]1 [Compound 66a] | – | – | IC50 (FL-SMARCA4; [4]): > 50 µM; IC50 [1, 5]: 32.1 µM |
| CCCn1cc(NC(=O)c2cc(Cl)c(Cl)n2C)ccc1=O [Compound 68] | > 50 µM | 8.55 µM | – |
| O=C(Nc1cc(F)c(=O)n(CCF)c1)c1ccc2c(c1)CNC2=O [Compound 68a] | – | – | IC50 (FL-SMARCA4; [4]): > 50 µM; IC50 [1, 5]: > 50 µM |
| CCn1cc(NC(=O)c2cnc(Cl)s2)ccc1=O [Compound 69] | 11.7 µM | 2.52 µM | – |
| O=C(Nc1cc(F)c(=O)n(CC(F)F)c1)c1cnc(C(F)(F)F)c(F)c1 [Compound 69a] | – | – | IC50 (FL-SMARCA4; [4]): 8.48 µM; IC50 [1, 5]: 1.53 µM |
| O=C(Nc1cc(F)c(=O)n(CC(F)F)c1)c1cc(C#CC2CN(CC(F)(F)F)C2)c(Cl)s1 [Compound 69c] | – | – | IC50 (FL-SMARCA4; [6]): 3.77 µM; IC50 [1, 7]: 1 µM |
| CCn1cc(NC(=O)c2cc(Cl)n(C)c2)ccc1=O [Compound 70] | > 50 µM | 16.7 µM | – |
| CNCCn1cc(NC(=O)c2cc(Cl)c(Cl)n2C)ccc1=O [Compound 71] | > 50 µM | > 50 µM | – |
| CCn1cc(N(C)C(=O)c2cc(Cl)c(Cl)n2C)ccc1=O [Compound 71a] | – | – | IC50 (FL-SMARCA4; [4]): 39.6 µM; IC50 [1, 5]: 2.72 µM |
| CCn1cc(NC(=O)c2nnc(Cl)s2)ccc1=O [Compound 72] | > 50 µM | 33.2 µM | – |
| CCn1cc(NC(=O)c2cc(Cl)c(C)s2)ccc1=O [Compound 73] | 35.6 µM | 11.5 µM | – |
| CCn1cc(NC(=O)c2cc(OC)c(Cl)s2)ccc1=O [Compound 74] | 31.5 µM | 17.2 µM | – |
| O=C(Nc1ccc(=O)n(CC(F)(F)F)c1)c1cc(Cl)c(Cl)s1 [Compound 75] | 1.52 µM | 0.437 µM | – |
| CC(C)Cn1cc(NC(=O)c2cc(Cl)c(Cl)s2)ccc1=O [Compound 76] | > 50 µM | > 50 µM | – |
| O=C(Nc1cc(F)c(=O)n(CC(F)F)c1)c1nsc(Cl)n1 [Compound 76c] | – | – | IC50 (FL-SMARCA4; [6]): > 50 µM; IC50 [1, 7]: 24.1 µM |

| SMILES | IC50 (FL-SMARCA4; [2]) | IC50 [1, 3] | further results |
| --- | --- | --- | --- |
| CCn1cc(C(=O)Nc2ccc(Br)s2)ccc1=O [Compound 77] | > 50 µM | > 50 µM | – |
| O=C(Nc1cc(F)c(=O)n(CC(F)F)c1)c1cc(C2CN(c3ccncc3)C2)c(Cl)s1 [Compound 77c] | – | – | IC50 (FL-SMARCA4; [6]): 30.5 µM; IC50 [1, 7]: 6.56 µM |
| CCn1cc(NC(=O)c2nnc(C)s2)ccc1=O [Compound 78] | > 50 µM | > 50 µM | – |
| CCn1cc(C(=O)Nc2cc(Cl)c(Cl)s2)ccc1=O [Compound 79] | > 50 µM | > 50 µM | – |
| O=C(Nc1ccc(=O)n(CC(F)F)c1)c1cc(Cl)c(Cl)s1 [Compound 81] | 0.723 µM | 0.223 µM | – |
| O=C(Nc1ccc(=O)n(CC2CC2)c1)c1cc(Cl)c(Cl)s1 [Compound 82] | 28.9 µM | 14.8 µM | – |
| O=C(Nc1ccc(=O)n(CCO)c1)c1cc(Cl)c(Cl)s1 [Compound 83] | > 50 µM | 20.8 µM | – |
| CCn1cc(NC(=O)c2cc(Cl)c(Cl)s2)cc(Cl)c1=O [Compound 84] | 1.12 µM | 0.197 µM | – |
| O=C(Nc1cc(F)c(=O)n(CC(F)F)c1)c1cc2cc(-c3ccncc3)ccc2s1 [Compound 84c] | – | – | IC50 (FL-SMARCA4; [6]): 28.9 µM; IC50 [1, 7]: 1.85 µM |
| O=C(Nc1ccc(=O)n(CC(F)(F)F)c1)c1cc(Cl)c(Cl)n1CCF [Compound 85] | 34.7 µM | 12 µM | – |
| CCn1cc(NC(=O)c2cc(Cl)c(C#N)s2)ccc1=O [Compound 86] | 0.669 µM | 0.365 µM | – |
| COCCn1cc(NC(=O)c2cc(Cl)c(Cl)s2)ccc1=O [Compound 87] | > 50 µM | > 50 µM | – |
| CCn1cc(NC(=O)c2ccc(CN(C)C)s2)ccc1=O [Compound 88] | > 50 µM | > 50 µM | – |
| Cn1ccnc1-c1cc(NC(=O)c2cc(Cl)c(C(F)(F)F)s2)cn(CC(F)F)c1=O [Compound 88c] | – | – | IC50 (FL-SMARCA4; [6]): > 50 µM; IC50 [1, 7]: > 50 µM |
| CN(C)CCn1cc(NC(=O)c2cc(Cl)c(Cl)n2C)ccc1=O [Compound 89] | > 50 µM | > 50 µM | – |
| CCn1cc(NC(=O)c2nncs2)ccc1=O [Compound 90] | > 50 µM | > 50 µM | – |
| CCc1cc(C(=O)Nc2ccc(=O)n(CC)c2)sc1Cl [Compound 91] | > 50 µM | > 50 µM | – |
| Cn1cnc(-c2cc(NC(=O)c3cc(Cl)c(C(F)(F)F)s3)cn(CC(F)F)c2=O)c1 [Compound 91c] | – | – | IC50 (FL-SMARCA4; [6]): > 50 µM; IC50 [1, 7]: > 50 µM |
| CCn1cc(NC(=O)c2cnn(C)c2)ccc1=O [Compound 92] | > 50 µM | > 50 µM | – |
